Series [1] is described as follows: Thermogravimetric analysis (TGA), thermally induced weight loss / thermal stability. Format: physicochemical. The text has this: Polymorph I of valacyclovir mesylate according to the present invention is further characterised by a typical TGA thermograph, or substantially the same TGA thermograph, as shown in FIG. 3. As used herein, the term “TGA” refers to thermogravimetric analysis. […] TGA is restricted in transitions that involve either a gain or a loss of mass and it is most commonly used to study desolvation processes and compound decomposition.
FIG. 3: Typical TGA thermograph of polymorph I of valacyclovir mesylate obtained by using thermogravimetric analysis (TGA) using TGA 7 manufactured by Perkin-Elmer. The experiments were done under flow of nitrogen (35 ml/min) and heating rate was 10° C./min.

The conditions of series [2]: cited from earlier work.
For series [3] the following is noted: cited from earlier work; for bioavailability: oral, valacyclovir in comparison to acyclovir.
A short description of series [4]: Dynamic vapour sorption (DVS), moisture sorption / hygroscopicity. Format: physicochemical. The text has this:
DVS is a measure of the water vapour or moisture sorption of a material under varying conditions of humidity and it can be used as a measure of the hygroscopicity of a given material. The DVS data as described herein was obtained using the Dynamic Vapour Sorption (DVS) methodology developed by Surface Measurement Systems (SMS) Ltd. for the rapid quantitative analysis of the water sorption properties of solids including pharmaceutical materials. The Surface Measurement Systems DVS instrument rapidly measures uptake and loss of moisture by flowing a carrier gas at a specified relative humidity (RH) over a sample (1 mg-1.5 g) suspended from the weighing mechanism of a Cahn D-200 ultra sensitive recording microbalance. This particular microbalance is used because it is capable of measuring changes in sample mass lower than 1 part in 10 million and provides the long-term stability as required for the accurate measurement of vapour sorption phenomena, which may take from minutes to days to complete depending upon the sample size and material. Indeed, a major factor in determining the water sorption behaviour of materials is the need to establish rapid water sorption equilibrium, therefore the DVS instrument allows sorption behaviour to be accurately determined on very small sample sizes (typically 10 mg), thus minimising the equilibration time required. One of the most critical factors for any instrumentation used for investigating moisture sorption behaviour is the temperature stability of the measurement system. The main DVS instrument systems as used herein are, therefore, housed in a precisely controlled constant temperature incubator with a temperature stability of ±0.1° C. This ensures very good instrument baseline stability as well as accurate control of the relative humidity generation. The required relative humidities are generated by accurately mixing dry and saturated vapour gas flows in the correct proportions using mass flow controllers. Humidity and temperature probes are situated just below the sample and reference holders to give independent verification of system performance. The microbalance mechanism is very sensitive to sorption and desorption of moisture. A constant dry gas purge to the balance head is, therefore, provided to give the best performance in terms of baseline stability. The purge flow is manually controlled such that in the event of a power failure, condensation of moisture in the balance head cannot occur. The DVS instrument is fully automated.

The mark [5] stands for this setting: temperature range of about 30-175° C.
Where [6] appears, read: at about 90% relative humidity (RH).

Where a name gives a salt, the structure may show the parent alone. Read-outs that look alike come from different tables or passages of the source.

As for “valacyclovir citrate [Polymorph I of valacyclovir citrate]”, the “stable to a temperature of (thermal stability confirmed by TGA)” value (from here on “stable to a temperature”) in series [1] (solid form as prepared) was “about 180 °C”. The TGA weight loss entry in series [1] (temperature range of about 30-80° C.) was “about 2.6%”.
As for “valacyclovir fumarate [Polymorph I of valacyclovir fumarate]”, the “stable to a temperature” value in series [1] (solid form as prepared) is “about 200 °C”. Also, the TGA weight loss result in series [1] (temperature range of about 30-100° C.) is listed as “about 0.9%”.
Consider `CC(C)[C@H](N)C(=O)OCCOCn1cnc2c(=O)[nH]c(N)nc21` [valacyclovir hydrochloride], for which, in series [2], the solubility in water entry is listed as “moderately soluble”.
On to “valacyclovir phosphate [Polymorph II of valacyclovir phosphate]”, for which, in series [1] (setting [5]), the TGA weight loss result was “about 6.8%”.
Take `Nc1nc2c(ncn2COCCO)c(=O)[nH]1` [Acyclovir, 9-[(2-hydroxyethoxy)methyl]guanine]: the bioavailability result in series [3] is “low bioavailability”.
For the compound `CC(C)[C@H](N)C(=O)OCCOCn1cnc2c(=O)[nH]c(N)nc21` [valacyclovir, L-valine 2-[(2-amino-1,6-dihydro-6-oxo-9H-purin-9-yl)methoxy]ethyl ester], the “absorption from the gastrointestinal tract” value in series [3] (after oral administration) is given as “rapidly absorbed”. In series [3], the bioavailability result is “improved bioavailability”.
Turning to “valacyclovir mesylate [Polymorph I of valacyclovir mesylate]”, the “dynamic vapour sorption (DVS)” value in series [4] (setting [6]) is “about 3.6%”. The “stable to a temperature” value in series [1] (solid form as prepared) was “about 200 °C”. Further, the TGA weight loss result in series [1] (temperature range of about 30-165° C.) is on record as “about 2.5%”.
Turning to “valacyclovir phosphate [Polymorph I of valacyclovir phosphate]”, the “dynamic vapour sorption (DVS)” value was “about 1.0%” in series [4] (at about 80% RH) and “about 5.1%” in series [4] (setting [6]). Besides, the “stable to a temperature” value in series [1] (solid form as prepared) is “about 200 °C”. Further, the TGA weight loss entry in series [1] (temperature range of about 30-200° C.) is on record as “no TGA weight loss”.
For the compound “valacyclovir phosphate [Polymorph III of valacyclovir phosphate]”, the “dynamic vapour sorption (DVS)” value in series [4] (setting [6]) was “about 5.2%”. Also, the TGA weight loss result in series [1] (setting [5]) is “about 2.1%”.
With “valacyclovir maleate [Polymorph I of valacyclovir maleate]”, the “stable to a temperature” value in series [1] (solid form as prepared) is “about 160 °C”. In series [1] (temperature range of about 30-150° C.), the TGA weight loss entry is recorded as “about 5.3%”.
Turning to `CC(C)[C@H](N)C(=O)OCCOCn1cnc2c(=O)[nH]c(N)nc21` [Polymorph I of valacyclovir base, L-valine 2-[(2-amino-1,6-dihydro-6-oxo-9H-purin-9-yl)methoxy]ethyl ester], the “dynamic vapour sorption (DVS)” value in series [4] (setting [6]) was “about 0.4%”. For the same compound, the “stable to a temperature” value in series [1] (solid form as prepared) is “about 200 °C”. The TGA weight loss result in series [1] (temperature range of about 200° C.) is on record as “no TGA weight loss”.
In the case of “valacyclovir fumarate [Polymorph II of valacyclovir fumarate]”, the “stable to a temperature” value in series [1] is “about 150 °C”. Further, in series [1] (temperature range of about 30-140° C.), the TGA weight loss entry is listed as “about 9.2%”.
